Source: US20250332266A1, “COMPOUNDS FOR THE DEGRADATION OF EGFR KINASE” (BeiGene Switzerland GmbH, priority 2022, published 2025)

How the values were obtained:
[1] = biological target: T1, EGFR L858R/T790M/C797S (H1975-clone #25) (Homo sapiens, UniProt P00533, C797S/L858R/T790M); assay: EGFR degradation, HTRF total-EGFR assay, H1975-clone #25 (LTC); type: cell-based; settings: H1975-clone #25 L858R/T790M/C797S, 16 h treatment
T1 construct: expressed in transfected cells; host or cells: H1975 (clone #25), lentiviral transduction, endogenous EGFR knocked out
T1 sequence (P00533 25-1210 T790M/C797S/L858R): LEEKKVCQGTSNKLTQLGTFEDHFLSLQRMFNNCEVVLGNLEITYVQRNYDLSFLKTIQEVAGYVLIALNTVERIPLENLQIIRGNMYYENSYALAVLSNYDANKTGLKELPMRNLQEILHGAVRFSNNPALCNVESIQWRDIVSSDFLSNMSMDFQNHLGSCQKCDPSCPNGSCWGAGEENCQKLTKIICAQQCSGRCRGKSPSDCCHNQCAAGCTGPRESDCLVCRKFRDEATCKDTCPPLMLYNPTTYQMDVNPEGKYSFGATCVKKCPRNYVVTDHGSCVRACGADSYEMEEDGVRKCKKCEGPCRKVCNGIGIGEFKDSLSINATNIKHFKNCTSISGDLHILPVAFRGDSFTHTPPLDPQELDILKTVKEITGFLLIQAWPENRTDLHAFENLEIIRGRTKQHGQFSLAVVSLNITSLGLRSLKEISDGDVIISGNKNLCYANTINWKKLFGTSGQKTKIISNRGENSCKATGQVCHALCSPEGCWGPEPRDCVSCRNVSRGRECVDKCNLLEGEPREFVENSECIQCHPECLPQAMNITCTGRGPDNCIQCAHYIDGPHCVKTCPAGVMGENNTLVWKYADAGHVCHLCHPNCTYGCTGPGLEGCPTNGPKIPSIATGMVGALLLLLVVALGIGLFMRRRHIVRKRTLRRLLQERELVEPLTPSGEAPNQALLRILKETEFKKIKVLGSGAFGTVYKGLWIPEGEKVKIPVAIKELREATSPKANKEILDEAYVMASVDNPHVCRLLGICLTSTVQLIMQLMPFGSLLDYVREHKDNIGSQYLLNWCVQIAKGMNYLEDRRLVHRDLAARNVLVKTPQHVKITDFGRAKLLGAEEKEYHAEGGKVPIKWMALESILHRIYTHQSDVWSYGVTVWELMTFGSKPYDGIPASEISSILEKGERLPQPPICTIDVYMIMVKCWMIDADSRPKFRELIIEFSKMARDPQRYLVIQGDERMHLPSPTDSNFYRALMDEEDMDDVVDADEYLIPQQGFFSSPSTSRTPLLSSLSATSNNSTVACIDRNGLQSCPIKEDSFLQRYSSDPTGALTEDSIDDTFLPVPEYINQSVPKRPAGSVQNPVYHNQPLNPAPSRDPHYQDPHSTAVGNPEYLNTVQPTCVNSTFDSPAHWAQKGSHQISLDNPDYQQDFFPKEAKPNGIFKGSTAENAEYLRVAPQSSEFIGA
Excerpt: (§1) H1975-clone #28 (Del19/T790M/C797S, or abbr: DTC), H1975-clone #23 (Del19/C797S, or abbr: DC), H1975-clone #25 (L858R/T790M/C797S, or abbr: LTC) and H1975-clone #8 (L858R/C797S, or abbr: LC). EGFR-Del19/T790M/C797S, EGFR-Del19/C797S, EGFR-L858R/T790M/C797S and EGFR-L858R/C797S were stably expressed in H1975 cell lines by lentivirus-mediated over-expression, respectively. The EGFR over-expressed cells then underwent knockout, in which the EGFR targeting sgRNA was designed to only target the endogenous EGFR copies and preserve the exogenous EGFR copies. Followed by the knockout, the edited H1975 cells were seeded in 96 well plates at the concentration of 1 cell/well, cultured for about 2 weeks to allow single clones formation. The formed clones were screened by DNA sequencing and whole exon sequencing analysis for the desired edition. H1975-clone #28, H1975-clone #23, H1975-clone #25 and H1975-clone #8 were finally confirmed as homozygous Del19/T790M/C797S EGFR, Del19/C797S EGFR, L858R/T790M/C797S EGFR and L858R/C797S EGFR clones, respectively.
(§2) H1975-#25, H1975-#28, H1975-#23 and H1975-#8 cells are treated with compounds diluted in 0.2% DMSO cell culture medium on day 2, incubate for 16 h, 37° C., 5% CO2. The final concentration of compounds in all assay is start with 10 μM, 5-fold dilution, total 8 doses were included.
(§3) Total-EGFR cellular kit(64NG1PEH) were used for evaluating EGFR degradation.
(§4) After 16 h treatment, add HTRF lysis buffer to each well; seal the plate and incubate 1 hour at room temperature on a plate shaker; Once the cells are lysed, 16 μL of cell lysate are transferred to a PE 384-well HTRF detection plate; 4 μL of pre-mixed HTRF antibodies are added to each well; cover the plate with a plate sealer, spin 1000 rpm for 1 min, incubate overnight at room temperature; read on BMG PheraStar with HTRF protocol (337 nm-665 nm-620 nm).
(§5) The inhibition (degradation) percentage of the compound was calculated by the following equation:
(§6) Inhibition percentage of Compound=100−100×(Signal−low control)/(High control−low control), wherein signal=each test compound group
(§7) High control=Cell group with added DMSO and without compound, indicating microplate readings without EGFR degradation.
(§8) Imax (Dmax) is the maximum percentage of inhibition (degradation).
(§9) The IC50 (DC50) value of a compound can be obtained by fitting the following equation
(§10) Wherein, X and Y are known values, and IC50, Hillslope, Top and Bottom are the parameters obtained by fitting with software. Y is the inhibition percentage (calculated from the equation), X is the concentration of the compound; IC50 is the concentration of the compound when the 50% inhibition is reached. The smaller the IC50 value is, the stronger the inhibitory ability of the compound is. Vice versa, the higher the IC50 value is, the weaker the ability the inhibitory ability of the compound is; Hillslope represents the slope of the fitted curve, generally around 1*; Bottom represents the minimum value of the curve obtained by data fitting, which is generally 0%±20%; Top represents the maximum value of the curve obtained by data fitting, which is generally 100%±20%. The experimental data were fitted by calculating and analyzing with Dotmatics data analysis software.

[2] = biological target: EGFR Del19/T790M/C797S (H1975-clone #28) (Homo sapiens, UniProt P00533, T790M/C797S, form not given); assay: EGFR degradation, HTRF total-EGFR assay, H1975-clone #28 (DTC); type: cell-based; settings: H1975-clone #28 Del19/T790M/C797S, 16 h treatment
Chain of EGFR Del19/T790M/C797S (H1975-clone #28) (P00533 with tags, fused parts or gaps DEL746-750/T790M/C797S, form open): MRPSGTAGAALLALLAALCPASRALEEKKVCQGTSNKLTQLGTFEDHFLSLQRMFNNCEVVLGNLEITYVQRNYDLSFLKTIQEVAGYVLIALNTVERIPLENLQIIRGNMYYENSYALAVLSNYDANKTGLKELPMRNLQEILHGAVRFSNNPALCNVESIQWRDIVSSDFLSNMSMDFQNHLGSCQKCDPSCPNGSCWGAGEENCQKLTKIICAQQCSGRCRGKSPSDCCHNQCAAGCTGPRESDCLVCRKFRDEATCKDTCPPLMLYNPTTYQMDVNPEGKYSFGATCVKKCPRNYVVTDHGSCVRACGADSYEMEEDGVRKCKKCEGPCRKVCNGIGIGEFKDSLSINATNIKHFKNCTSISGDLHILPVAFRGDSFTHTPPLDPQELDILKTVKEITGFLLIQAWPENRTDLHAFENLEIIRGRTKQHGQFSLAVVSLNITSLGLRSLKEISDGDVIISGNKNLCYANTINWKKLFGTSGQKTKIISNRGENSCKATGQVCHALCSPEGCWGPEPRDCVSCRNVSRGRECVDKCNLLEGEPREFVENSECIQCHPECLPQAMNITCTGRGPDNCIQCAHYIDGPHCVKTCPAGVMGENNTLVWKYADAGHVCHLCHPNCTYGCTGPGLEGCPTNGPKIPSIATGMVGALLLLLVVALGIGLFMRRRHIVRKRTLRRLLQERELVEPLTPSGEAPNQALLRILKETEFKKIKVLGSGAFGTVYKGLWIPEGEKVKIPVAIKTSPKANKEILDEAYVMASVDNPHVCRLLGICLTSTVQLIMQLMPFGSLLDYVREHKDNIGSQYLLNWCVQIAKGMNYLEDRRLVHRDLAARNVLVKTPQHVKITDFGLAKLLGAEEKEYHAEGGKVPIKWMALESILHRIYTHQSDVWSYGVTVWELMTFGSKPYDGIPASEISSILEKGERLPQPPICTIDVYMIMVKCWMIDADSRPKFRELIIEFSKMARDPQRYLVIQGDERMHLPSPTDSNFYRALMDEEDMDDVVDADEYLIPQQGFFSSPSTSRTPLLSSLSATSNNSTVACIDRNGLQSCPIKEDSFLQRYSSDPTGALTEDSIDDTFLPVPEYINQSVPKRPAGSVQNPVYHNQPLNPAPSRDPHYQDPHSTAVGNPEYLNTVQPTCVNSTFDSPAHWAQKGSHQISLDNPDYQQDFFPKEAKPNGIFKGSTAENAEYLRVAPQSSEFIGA
Excerpt: as §1, §2, §3, §4, §5, §6, §7, §8, §9, §10

SMILES	Degradation H1975 # 25-LTC [1]	Degradation H1975 # 28 DTC [2]
Cc1cc2cc(n1)-c1cnn(C)c1OC[C@H]1C[C@@H](CN3/C(=N/C2=O)Nc2ccc(N4CCN(C5CCN(c6ccc(C7CCC(=O)NC7=O)nc6)CC5)CC4=O)cc23)C1 (some centres unmarked) [Example 12, 3-(5-(4-(4-((7^1s,7^3s,E)-1^1,2^6-dimethyl-3-oxo-5^2,5^3-dihydro-1^1H,5^1H-9-oxa-4-aza-5(2,1)-benzo[d]imidazola-2(2,4)-pyridina-1(4,5)-pyrazola-7(1,3)-cyclobutanacyclononaphane-5^6-yl)-3-oxopiperazin-1-yl)piperidin-1-yl)pyridin-2-yl)piperidine-2,6-dione]	79.0	85.3
Cc1cc2cc(n1)-c1cnn(C)c1OC[C@H]1C[C@@H](CN3/C(=N/C2=O)Nc2ccc(N4CCN(C5CCN(c6ccc(C7CCC(=O)NC7=O)nc6)CC5)CC4)cc23)C1 (some centres unmarked) [Example 15, 3-(5-(4-(4-((7^1s,7^3s,E)-1^1,2^6-dimethyl-3-oxo-5^2,5^3-dihydro-1^1H,5^1H-9-oxa-4-aza-5(2,1)-benzo[d]imidazola-2(2,4)-pyridina-1(4,5)-pyrazola-7(1,3)-cyclobutanacyclononaphane-5^6-yl)piperazin-1-yl)piperidin-1-yl)pyridin-2-yl)piperidine-2,6-dione]	87.3	76.0
Cc1cc2cc(n1)-c1cnn(C)c1OC[C@H]1C[C@@H](CN3/C(=N/C2=O)Nc2ccc(N4CCC(N5CCN(c6cc(F)c([C@H]7CCC(=O)NC7=O)c(F)c6)CC5)CC4)cc23)C1 [Example 17, (R)-3-(4-(4-(1-((7^1s,7^3s,E)-1^1,2^6-dimethyl-3-oxo-5^2,5^3-dihydro-1^1H,5^1H-9-oxa-4-aza-5(2,1)-benzo[d]imidazola-2(2,4)-pyridina-1(4,5)-pyrazola-7(1,3)-cyclobutanacyclononaphane-5^6-yl)piperidin-4-yl)piperazin-1-yl)-2,6-difluorophenyl)piperidine-2,6-dione]	88.3	86.2
Cc1cc2cc(n1)-c1cnn(C)c1OC[C@H]1C[C@@H](CN3/C(=N/C2=O)Nc2ccc(N4CCN(C5CCN(c6cc(F)c([C@H]7CCC(=O)NC7=O)c(F)c6)CC5)C[C@H]4C)cc23)C1 [Example 18, (R)-3-(4-(4-((R)-4-((7^1s,7^3S,E)-1^1,2^6-dimethyl-3-oxo-5^2,5^3-dihydro-1^1H,5^1H-9-oxa-4-aza-5(2,1)-benzo[d]imidazola-2(2,4)-pyridina-1(4,5)-pyrazola-7(1,3)-cyclobutanacyclononaphane-5^6-yl)-3-methylpiperazin-1-yl)piperidin-1-yl)-2,6-difluorophenyl)piperidine-2,6-dione]	88.6	88.4
Cc1cc2cc(n1)-c1cnn(C)c1OC[C@H]1C[C@@H](CN3/C(=N/C2=O)Nc2ccc(N4CCN([C@H]5CCN(c6ccc(C7CCC(=O)NC7=O)nc6C)C[C@H]5F)CC4)cc23)C1 (stereo partly drawn) [Example 19, 3-(5-((3R,4S)-4-(4-((7^1s,7^3R,E)-1^1,2^6-dimethyl-3-oxo-5^2,5^3-dihydro-1^1H,5^1H-9-oxa-4-aza-5(2,1)-benzo[d]imidazola-2(2,4)-pyridina-1(4,5)-pyrazola-7(1,3)-cyclobutanacyclononaphane-5^6-yl)piperazin-1-yl)-3-fluoropiperidin-1-yl)-6-methylpyridin-2-yl)piperidine-2,6-dione]	92.2	92.8
COC[C@@H]1CN(c2ccc3c(c2)N2C[C@H]4C[C@@H](COc5c(cnn5C)-c5cc(cc(C)n5)C(=O)/N=C/2N3)C4)CCN1C1CCN(c2cc(F)c([C@H]3CCC(=O)NC3=O)c(F)c2)CC1 [Example 20, (R)-3-(4-(4-((S)-4-((7^1s,7^3R,E)-1^1,2^6-dimethyl-3-oxo-5^2,5^3-dihydro-1^1H,5^1H-9-oxa-4-aza-5(2,1)-benzo[d]imidazola-2(2,4)-pyridina-1(4,5)-pyrazola-7(1,3)-cyclobutanacyclononaphane-5^6-yl)-2-(methoxymethyl)piperazin-1-yl)piperidin-1-yl)-2,6-difluorophenyl)piperidine-2,6-dione]	92.5	89.8

Second part, the compound after the results:

Degradation H1975 # 25-LTC [1]	Degradation H1975 # 28 DTC [2]	SMILES
94.0	91.5	Cc1cc2cc(n1)-c1cnn(C)c1OC[C@H]1C[C@@H](CN3/C(=N/C2=O)Nc2ccc(N4CCN(C5CCN(c6ccc(C7CCC(=O)NC7=O)nc6C)CC5)CC4)cc23)C1 (some centres unmarked) [Example 21, 3-(5-(4-(4-((7^1s,7^3s,E)-1^1,2^6-dimethyl-3-oxo-5^2,5^3-dihydro-1H,5^1H-9-oxa-4-aza-5(2,1)-benzo[d]imidazola-2(2,4)-pyridina-1(4,5)-pyrazola-7(1,3)-cyclobutanacyclononaphane-5^6-yl)piperazin-1-yl)piperidin-1-yl)-6-methylpyridin-2-yl)piperidine-2,6-dione]
91.7	89.5	Cc1cc2cc(n1)-c1cnn(C)c1OC[C@H]1C[C@@H](CN3/C(=N/C2=O)Nc2ccc(N4CCN(C5CCN(c6ccc(C7CCC(=O)NC7=O)nc6C)CC5)CC4=O)cc23)C1 (some centres unmarked) [Example 22, 3-(5-(4-(4-((7^1s,7^3s,E)-1^1,2^6-dimethyl-3-oxo-5^2,5^3-dihydro-1^1H,5^1H-9-oxa-4-aza-5(2,1)-benzo[d]imidazola-2(2,4)-pyridina-1(4,5)-pyrazola-7(1,3)-cyclobutanacyclononaphane-5^6-yl)-3-oxopiperazin-1-yl)piperidin-1-yl)-6-methylpyridin-2-yl)piperidine-2,6-dione]
91.3	87.0	COC[C@H]1CN(c2ccc3c(c2)N2C[C@H]4C[C@@H](COc5c(cnn5C)-c5cc(cc(C)n5)C(=O)/N=C/2N3)C4)CCN1C1CCN(c2cnc(C3CCC(=O)NC3=O)cc2C)CC1 (stereo partly drawn) [Example 23, 3-(5-(4-((R)-4-((7^1s,7^3S,E)-1^1,2^6-dimethyl-3-oxo-5^2,5^3-dihydro-1^1H,5^1H-9-oxa-4-aza-5(2,1)-benzo[d]imidazola-2(2,4)-pyridina-1(4,5)-pyrazola-7(1,3)-cyclobutanacyclononaphane-5^6-yl)-2-(methoxymethyl)piperazin-1-yl)piperidin-1-yl)-4-methylpyridin-2-yl)piperidine-2,6-dione]
91.7	88.0	COC[C@H]1CN(c2ccc3c(c2)N2C[C@H]4C[C@@H](COc5c(cnn5C)-c5cc(cc(C)n5)C(=O)/N=C/2N3)C4)CCN1C1CCN(c2ccc(C3CCC(=O)NC3=O)nc2C)CC1 (stereo partly drawn) [Example 24, 3-(5-(4-((R)-4-((7^1s,7^3S,E)-1^1,2^6-dimethyl-3-oxo-5^2,5^3-dihydro-1^1H,5^1H-9-oxa-4-aza-5(2,1)-benzo[d]imidazola-2(2,4)-pyridina-1(4,5)-pyrazola-7(1,3)-cyclobutanacyclononaphane-5^6-yl)-2-(methoxymethyl)piperazin-1-yl)piperidin-1-yl)-6-methylpyridin-2-yl)piperidine-2,6-dione]
